# Test results: US20200247897A1, “THERAPEUTIC ANTIBODIES BASED ON MUTATED IGG HEXAMERS” (GENMAB B.V., priority 2017, published 2020)
# Where two headings read alike, the source gives them in different places.
# Columns and labels:
# DLD-1 = test: Drug combination screen (ATPlite, Synergy Score), DLD-1
# LS-411N = test: Drug combination screen (ATPlite, Synergy Score), LS-411N; type: cell-based, human
# SNU-C2B = test: Drug combination screen (ATPlite, Synergy Score), SNU-C2B
# HCT 116 = test: Drug combination screen (ATPlite, Synergy Score), HCT 116
# SW480 = test: Drug combination screen (ATPlite, Synergy Score), SW480; type: cell-based, human
# [1] = compound in combination with IgG1-hDR5-01-G56T-E430G + IgG1-hDR5-05-E430G, DLD-1, 120 hour ATPlite, 6x6 matrix
# [2] = compound in combination with IgG1-hDR5-01-G56T-E430G + IgG1-hDR5-05-E430G, LS-411N, 72 hour ATPlite, 6x6 matrix
# [3] = compound in combination with IgG1-hDR5-01-G56T-E430G + IgG1-hDR5-05-E430G, SNU-C2B, 72 hour ATPlite, 6x6 matrix
# [4] = compound in combination with IgG1-hDR5-01-G56T-E430G + IgG1-hDR5-05-E430G, HCT 116, 120 hour ATPlite, 6x6 matrix
# [5] = compound in combination with IgG1-hDR5-01-G56T-E430G + IgG1-hDR5-05-E430G, SW480, 72 hour ATPlite, 6x6 matrix
Compound,Synergy Score DLD-1 (DLD-1; [1]),Synergy Score LS-411N (LS-411N; [2]),Synergy Score SNU-C2B (SNU-C2B; [3]),Synergy Score HCT-116 (HCT 116; [4]),Synergy Score SW480 (SW480; [5]),Synergy Score DLD-1 (DLD-1),Synergy Score LS-411N (LS-411N),Synergy Score SNU-C2B (SNU-C2B),Synergy Score HCT-116 (HCT 116),Synergy Score SW480 (SW480)
O=C(CCCCCCC(=O)Nc1ccccc1)NO,4.4,4.4,11,2.5,7.3,–,–,–,–,–
CC[C@@]1(O)C(=O)OCc2c1cc1n(c2=O)Cc2cc3cc(O)ccc3nc2-1 [10-Hydroxycamptothecin],–,–,–,–,–,21.9,16.9,12.4,9.6,30.1
CC1(C)CCC(CN2CCN(c3ccc(C(=O)NS(=O)(=O)c4ccc(NCC5CCOCC5)c([N+](=O)[O-])c4)c(Oc4cnc5[nH]ccc5c4)c3)CC2)=C(c2ccc(Cl)cc2)C1 [ABT-199],0,0.1,0,0,0,–,–,–,–,–
CC1(C)CCC(c2ccc(Cl)cc2)=C(CN2CCN(c3ccc(C(=O)NS(=O)(=O)c4ccc(N[C@H](CCN5CCOCC5)CSc5ccccc5)c(S(=O)(=O)C(F)(F)F)c4)cc3)CC2)C1 [ABT-263],3.4,7.6,1,0,8,–,–,–,–,–
CN(C)CC[C@H](CSc1ccccc1)Nc1ccc(S(=O)(=O)NC(=O)c2ccc(N3CCN(Cc4ccccc4-c4ccc(Cl)cc4)CC3)cc2)cc1[N+](=O)[O-] [ABT-737],1.5,4.2,1.1,0,7.5,–,–,–,–,–
C[C@]1(c2nc3c(C(N)=O)cccc3[nH]2)CCCN1 [ABT-888],–,0.7,0.1,–,0,–,–,–,–,–
Cc1ccc(C(=O)Nc2ccc(CN3CCN(C)CC3)c(C(F)(F)F)c2)cc1C#Cc1cnc2cccnn12 [AP24534],4.3,2.6,1.8,1.4,3.7,–,–,–,–,–
C=CC(=O)Nc1ccc2ncnc(Nc3ccc(OCc4cccc(F)c4)c(Cl)c3)c2c1 [AST-1306],0.3,1.8,0.7,0.1,0.9,–,–,–,–,–
Cn1cnc2c(F)c(Nc3ccc(Br)cc3Cl)c(C(=O)NOCCO)cc21 [AZD6244],1.5,0.7,0.6,2.7,11.7,–,–,–,–,–
COc1ccc(-c2ccc3c(N4CCOC[C@@H]4C)nc(N4CCOC[C@@H]4C)nc3n2)cc1CO [AZD 8055],3,10,12.2,1.7,3.9,–,–,–,–,–
Cn1c(=O)n(-c2ccc(C(C)(C)C#N)cc2)c2c3cc(-c4cnc5ccccc5c4)ccc3ncc21 [BEZ235],2.4,1.1,5.4,1.4,3.2,–,–,–,–,–
CCN1CCN(c2ccc(Nc3cc(N(C)C(=O)Nc4c(Cl)c(OC)cc(OC)c4Cl)ncn3)cc2)CC1 [BGJ398],1,1.4,0.8,0.1,1.6,–,–,–,–,–
C[C@@]1(C(=O)Nc2ccc(F)nc2)CCCN1c1nc(Nc2cc(C3CC3)n[nH]2)c2cccn2n1 [BMS-754807],11.3,10.8,1.3,2.1,5.9,–,–,–,–,–
O=C(/C=C/c1cccc(S(=O)(=O)Nc2ccccc2)c1)NO [Belinostat],8.6,4.5,16.4,4.1,10.2,–,–,–,–,–
"CC[C@H](NC(=O)[C@H](C)NC)C(=O)N1C[C@@H](O)C[C@H]1Cc1c(-c2[nH]c3cc(F)ccc3c2C[C@@H]2C[C@H](O)CN2C(=O)[C@H](CC)NC(=O)[C@H](C)NC)[nH]c2cc(F)ccc12 [Birinapant, reference compound]",5.8,61.2,37,16.4,54.5,–,–,–,–,–
C[C@@H]1CCN(C(=O)CC#N)C[C@@H]1N(C)c1ncnc2[nH]ccc12 [CP-690550],0.1,0.6,0.1,0,0,–,–,–,–,–
N.N.O=C([O-])C1(C(=O)[O-])CCC1.[Pt+2] [Carboplatin],11.3,12,11.6,5.8,19.5,–,–,–,–,–
N.N.[Cl][Pt][Cl] [Cisplatin],8.8,15.4,12.9,6.7,18.9,–,–,–,–,–
CC1=C(C(=O)Nc2cc3cn[nH]c3cc2F)C(c2ccc(C(F)(F)F)cc2)CC(=O)N1 (centres unmarked) [Compound G5K429286A],4.9,9.8,5.3,2.6,5.3,–,–,–,–,–
C[C@@H](Oc1cc(-c2cnn(C3CCNCC3)c2)cnc1N)c1c(Cl)ccc(F)c1Cl [Crizotinib],13.4,–,5.4,7.7,8.9,–,–,–,–,–
CC(C)(C)c1nc(-c2cccc(NS(=O)(=O)c3c(F)cccc3F)c2F)c(-c2ccnc(N)n2)s1 [Dabrafenib],2.2,0.5,0.5,0.7,3.1,–,–,–,–,–
C[C@@H]1C[C@H]2[C@@H]3CCC4=CC(=O)C=C[C@]4(C)[C@@]3(F)[C@@H](O)C[C@]2(C)[C@@]1(O)C(=O)CO [Dexamethasone],0.1,0.4,0.8,0,0,–,–,–,–,–
COc1cccc2c1C(=O)c1c(O)c3c(c(O)c1C2=O)C[C@@](O)(C(=O)CO)C[C@@H]3O[C@H]1C[C@H](N)[C@H](O)[C@H](C)O1 [Doxorubicin],16.2,9.4,18,4.6,20.5,–,–,–,–,–
Cn1cc(C2=C(c3cn(C4CCN(Cc5ccccn5)CC4)c4ccccc34)C(=O)NC2=O)c2ccccc21 [Enzastaurin],0.9,5.6,0.5,0.6,6.3,–,–,–,–,–
COc1cccc2c1C(=O)c1c(O)c3c(c(O)c1C2=O)C[C@@](O)(C(=O)CO)C[C@@H]3O[C@H]1C[C@H](N)[C@@H](O)[C@H](C)O1 [Epirubicin],15.6,5.8,15.1,4.9,17.7,–,–,–,–,–
TW-37,–,29.9,–,5.4,10.5,–,–,–,–,–
